# Results taken from patent publication US11987648B2, “Cyclohexapeptides as selective somatostatin SST5 receptor agonists” (Heptares Therapeutics Limited, priority 2018, dated 2024).
# *1 amine or outer side, *2 acyl side, *3 side chain or, on linkers, in order; H or OH if unused. Where a SMILES comes first, the peptide text is derived from it. Side-chain parts run from the residue outwards. [ ]: non-standard residue; d: D form. The star is where a group is joined. Ala(piperidin-4-yl) = O=C([C@H](CC1CCN([*:3])CC1)N[*:1])[*:2]; X2 = O=C([C@@H]1C[C@@H](Oc2ccncc2)CN1[*:1])[*:2]; Ala(piperazin-1-yl) = N[C@@H](CN1CCNCC1)C(=O)O; X5 = CN([C@@H](CC1CCNCC1)C(=O)[*:2])[*:1]; Phe(4-Cl) = N[C@@H](Cc1ccc(Cl)cc1)C(=O)O; Morpholine(3S-CO) = O=C(O)[C@@H]1COCCN1; Ethylenediamine = C(CN[*:2])N[*:1]; d(hPhe) = N[C@H](CCc1ccccc1)C(=O)O; Hyp = O=C(O)[C@@H]1C[C@@H](O)CN1; hPhe = N[C@@H](CCc1ccccc1)C(=O)O; 3Pal = N[C@@H](Cc1cccnc1)C(=O)O; Cyclohexylmethyl = C1CCC(C*)CC1; Tic = O=C(O)[C@@H]1Cc2ccccc2CN1; Phg = N[C@H](C(=O)O)c1ccccc1; CO = O=C([*:1])[*:2]; Bn = c1ccc(C*)cc1
# Columns and labels:
# [1] = target: SST2 (Homo sapiens, UniProt P30874); test: Hit Hunter cAMP XS+ assay, SST2 activation via Gi (reduction of forskolin-stimulated cAMP); format: cell-based; conditions: for Emax: read-out: SST2 (EMax); for EC50: reduction of forskolin-stimulated cAMP, 4-parameter logistic fit, read-out: SST2 pEC50 (converted)
# Procedure: (§1) A Hit Hunter® cAMP XS+ assay was used to monitor activation of the SST2 and SST5 via the Gi G protein. Cells were pre-stimulated with forskolin to elicit a cAMP response and the potency and efficacy of somatostatin agonists to reduce cAMP was measured. Briefly cells (10,000 cells/well) were incubated (37° C.; 30 min) with compound ([…]) in media (2:1 HBSS/11 mM Hepes: cAMP XS+Ab reagent) in the presence of EC80 forskolin ([…] and 15 μM SST5). Signal was detected through incubation with 20 μL cAMP XS+ED/CL lysis cocktail ([…]; RT) followed by incubation with […] cAMP XS+EA reagent (180 min; RT). Microplates were read with a PerkinElmer Envision™ instrument for chemiluminescent signal detection.
# [2] = target: SST5 (Homo sapiens, UniProt P35346); test: Hit Hunter cAMP XS+ assay, SST5 activation via Gi (reduction of forskolin-stimulated cAMP); format: cell-based; conditions: for Emax: read-out: SST5 (EMax); for EC50: reduction of forskolin-stimulated cAMP, 4-parameter logistic fit, read-out: SST5 pEC50 (converted); for SST5/2 Selectivity: selectivity for SST5 over SST2
# Procedure: as §1
# SST5, sequence (P35346 whole entry): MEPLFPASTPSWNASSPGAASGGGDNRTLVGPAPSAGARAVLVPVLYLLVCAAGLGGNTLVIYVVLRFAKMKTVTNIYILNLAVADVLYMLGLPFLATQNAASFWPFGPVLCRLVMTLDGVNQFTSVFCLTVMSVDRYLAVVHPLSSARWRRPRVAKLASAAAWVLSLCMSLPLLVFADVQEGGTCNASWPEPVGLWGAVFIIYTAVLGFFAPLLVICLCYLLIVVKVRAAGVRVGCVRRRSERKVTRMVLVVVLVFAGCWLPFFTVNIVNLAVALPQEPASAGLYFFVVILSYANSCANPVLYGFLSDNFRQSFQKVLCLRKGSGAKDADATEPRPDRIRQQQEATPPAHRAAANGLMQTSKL
# SST2, sequence (P30874 whole entry): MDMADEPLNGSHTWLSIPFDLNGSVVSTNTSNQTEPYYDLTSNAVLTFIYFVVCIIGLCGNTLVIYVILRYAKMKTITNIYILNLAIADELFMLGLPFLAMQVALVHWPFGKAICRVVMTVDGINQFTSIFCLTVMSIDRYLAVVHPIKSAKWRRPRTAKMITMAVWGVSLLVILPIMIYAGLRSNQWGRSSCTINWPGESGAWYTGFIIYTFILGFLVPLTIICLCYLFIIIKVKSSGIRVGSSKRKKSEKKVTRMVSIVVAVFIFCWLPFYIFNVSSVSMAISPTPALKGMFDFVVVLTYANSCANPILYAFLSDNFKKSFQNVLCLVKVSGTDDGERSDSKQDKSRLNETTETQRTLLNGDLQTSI
Compound,Emax [1],EC50 [1],Emax [2],EC50 [2],SST5/2 Selectivity [2]
NCCNC(=O)O[C@@H]1C[C@H]2C(=O)N[C@@H](CCc3ccccc3)C(=O)N[C@@H](Cc3c[nH]c4ccccc34)C(=O)N[C@@H](CC3CCNCC3)C(=O)N[C@@H](Cc3ccc(OCc4ccccc4)cc3)C(=O)N3Cc4ccccc4C[C@H]3C(=O)N2C1 [Example 19] (cyclo([Hyp]([CO-Ethylenediamine])[hPhe]W[Ala(piperidin-4-yl)]Y(Bn)[Tic])),75.5%,100 nM,99.8%,20 nM,5.5
O=C1N[C@@H](Cc2cccnc2)C(=O)N2C[C@H](Oc3ccncc3)C[C@H]2C(=O)N[C@H](CCc2ccccc2)C(=O)N[C@H](Cc2c[nH]c3ccccc23)C(=O)N[C@@H](CC2CCNCC2)C(=O)N[C@H]1Cc1ccc(OCc2ccccc2)cc1 [Example 20] (cyclo([3Pal][X2][d(hPhe)][dW][Ala(piperidin-4-yl)]Y(Bn))),98%,3160 nM,99.6%,6.31 nM,418.4
O=C1N[C@@H](Cc2cccnc2)C(=O)N2C[C@H](Oc3ccncc3)C[C@H]2C(=O)N[C@@H](CCc2ccccc2)C(=O)N[C@H](Cc2c[nH]c3ccccc23)C(=O)N[C@@H](CC2CCNCC2)C(=O)N[C@H]1Cc1ccc(OCc2ccccc2)cc1 [Example 22] (cyclo([3Pal][X2][hPhe][dW][Ala(piperidin-4-yl)]Y(Bn))),100%,79.4 nM,102%,0.501 nM,142.6
O=C1N[C@@H](Cc2ccc(OCc3ccccc3)cc2)C(=O)N[C@@H](Cc2cccnc2)C(=O)N2C[C@H](Oc3ccncc3)C[C@H]2C(=O)N[C@@H](CCc2ccccc2)C(=O)N[C@@H](Cc2c[nH]c3ccccc23)C(=O)N[C@H]1CC1CCNCC1 [Example 23] (cyclo([3Pal][X2][hPhe]W[Ala(piperidin-4-yl)]Y(Bn))),96.6%,631 nM,101%,3.98 nM,148.7
O=C1N[C@@H](Cc2ccc(OCc3ccccc3)cc2)C(=O)N[C@@H](Cc2cccnc2)C(=O)N2C[C@H](Oc3ccncc3)C[C@H]2C(=O)N[C@H](CCc2ccccc2)C(=O)N[C@@H](Cc2c[nH]c3ccccc23)C(=O)N[C@H]1CC1CCNCC1 [Example 24] (cyclo([3Pal][X2][d(hPhe)]W[Ala(piperidin-4-yl)]Y(Bn))),46.8%,> 10000 nM,102%,100 nM,110.6
NCCNC(=O)O[C@@H]1C[C@H]2C(=O)N[C@H](CCc3ccccc3)C(=O)N[C@H](Cc3c[nH]c4ccccc34)C(=O)N[C@@H](CN3CCNCC3)C(=O)N[C@@H](Cc3ccc(OCc4ccccc4)cc3)C(=O)N3Cc4ccccc4C[C@H]3C(=O)N2C1 [Example 25] (cyclo([Hyp]([CO-Ethylenediamine])[d(hPhe)][dW][Ala(piperazin-1-yl)]Y(Bn)[Tic])),100%,200 nM,102%,0.126 nM,1351.8
NCCNC(=O)O[C@@H]1C[C@H]2C(=O)N[C@@H](CCc3ccccc3)C(=O)N[C@H](Cc3c[nH]c4ccccc34)C(=O)N[C@@H](CN3CCNCC3)C(=O)N[C@@H](Cc3ccc(OCc4ccccc4)cc3)C(=O)N3Cc4ccccc4C[C@H]3C(=O)N2C1 [Example 26] (cyclo([Hyp]([CO-Ethylenediamine])[hPhe][dW][Ala(piperazin-1-yl)]Y(Bn)[Tic])),66.6%,501 nM,99.1%,0.126 nM,4067.3
NCCNC(=O)O[C@@H]1C[C@H]2C(=O)N[C@@H](c3ccccc3)C(=O)N[C@H](Cc3c[nH]c4ccccc34)C(=O)N[C@@H](CN3CCNCC3)C(=O)N[C@@H](Cc3ccc(OCC4CCCCC4)cc3)C(=O)N[C@@H](Cc3ccccc3)C(=O)N2C1 [Example 27] (cyclo(F[Hyp]([CO-Ethylenediamine])[Phg][dW][Ala(piperazin-1-yl)]Y(Cyclohexylmethyl))),90.7%,398 nM,99.4%,2.51 nM,159.6
NCCNC(=O)O[C@@H]1C[C@H]2C(=O)N[C@@H](CCc3ccccc3)C(=O)N[C@H](Cc3c[nH]c4ccccc34)C(=O)N[C@@H](CC3CCNCC3)C(=O)N[C@@H](Cc3ccc(OCc4ccccc4)cc3)C(=O)N[C@@H](Cc3ccccc3)C(=O)N2C1 [Example 28] (cyclo(F[Hyp]([CO-Ethylenediamine])[hPhe][dW][Ala(piperidin-4-yl)]Y(Bn))),99.6%,7.94 nM,100%,0.0794 nM,101.0
NCCNC(=O)O[C@@H]1C[C@H]2C(=O)N[C@@H](CCc3ccccc3)C(=O)N[C@@H](Cc3c[nH]c4ccccc34)C(=O)N[C@@H](CC3CCNCC3)C(=O)N[C@@H](Cc3ccc(OCc4ccccc4)cc3)C(=O)N[C@@H](Cc3ccccc3)C(=O)N2C1 [Example 29] (cyclo(F[Hyp]([CO-Ethylenediamine])[hPhe]W[Ala(piperidin-4-yl)]Y(Bn))),89.6%,794 nM,100%,1 nM,663.6
NCCNC(=O)O[C@@H]1C[C@H]2C(=O)N[C@H](CCc3ccccc3)C(=O)N[C@H](Cc3c[nH]c4ccccc34)C(=O)N[C@@H](CN3CCNCC3)C(=O)N[C@@H](Cc3ccc(OCc4ccccc4)cc3)C(=O)N[C@@H](Cc3ccc(Cl)cc3)C(=O)N2C1 [Example 30] (cyclo([Hyp]([CO-Ethylenediamine])[d(hPhe)][dW][Ala(piperazin-1-yl)]Y(Bn)[Phe(4-Cl)])),100%,251 nM,101%,1 nM,214.2
O=C1N[C@@H](Cc2ccc(OCc3ccccc3)cc2)C(=O)N2Cc3ccccc3C[C@H]2C(=O)N2CCOC[C@H]2C(=O)N[C@@H](CCc2ccccc2)C(=O)N[C@H](Cc2c[nH]c3ccccc23)C(=O)N[C@H]1CN1CCNCC1 [Example 31] (cyclo([Tic][Morpholine(3S-CO)][hPhe][dW][Ala(piperazin-1-yl)]Y(Bn))),99.7%,200 nM,88.7%,0.0631 nM,3441.5
CN1C(=O)[C@@H](Cc2c[nH]c3ccccc23)NC(=O)[C@@H](CCc2ccccc2)NC(=O)[C@@H]2COCCN2C(=O)[C@@H]2Cc3ccccc3CN2C(=O)[C@H](Cc2ccc(OCc3ccccc3)cc2)NC(=O)[C@@H]1CC1CCNCC1 [Example 32] (cyclo([Tic][Morpholine(3S-CO)][d(hPhe)][dW][X5]Y(Bn))),98.8%,100 nM,99.9%,1.26 nM,66.8
NCCNC(=O)O[C@@H]1C[C@H]2C(=O)N[C@H](CCc3ccccc3)C(=O)N[C@@H](Cc3c[nH]c4ccccc34)C(=O)N[C@@H](CN3CCNCC3)C(=O)N[C@@H](Cc3ccc(OCc4ccccc4)cc3)C(=O)N[C@@H](Cc3cccnc3)C(=O)N2C1 [Example 33] (cyclo([3Pal][Hyp]([CO-Ethylenediamine])[d(hPhe)]W[Ala(piperazin-1-yl)]Y(Bn))),13.4%,> 10000 nM,107%,39.8 nM,279.1
NCCNC(=O)O[C@@H]1C[C@H]2C(=O)N[C@@H](CCc3ccccc3)C(=O)N[C@@H](Cc3c[nH]c4ccccc34)C(=O)N[C@@H](CN3CCNCC3)C(=O)N[C@@H](Cc3ccc(OCc4ccccc4)cc3)C(=O)N[C@@H](Cc3cccnc3)C(=O)N2C1 [Example 34] (cyclo([3Pal][Hyp]([CO-Ethylenediamine])[hPhe]W[Ala(piperazin-1-yl)]Y(Bn))),49.2%,3980 nM,102%,1 nM,3271.8
NCCNC(=O)O[C@@H]1C[C@H]2C(=O)N[C@H](CCc3ccccc3)C(=O)N[C@@H](Cc3c[nH]c4ccccc34)C(=O)N[C@@H](CN3CCNCC3)C(=O)N[C@@H](Cc3ccc(OCc4ccccc4)cc3)C(=O)N3Cc4ccccc4C[C@H]3C(=O)N2C1 [Example 35] (cyclo([Hyp]([CO-Ethylenediamine])[d(hPhe)]W[Ala(piperazin-1-yl)]Y(Bn)[Tic])),27.8%,> 10000 nM,107%,1 nM,10046.0
NCCNC(=O)O[C@@H]1C[C@H]2C(=O)N[C@@H](CCc3ccccc3)C(=O)N[C@@H](Cc3c[nH]c4ccccc34)C(=O)N[C@@H](CN3CCNCC3)C(=O)N[C@@H](Cc3ccc(OCc4ccccc4)cc3)C(=O)N3Cc4ccccc4C[C@H]3C(=O)N2C1 [Example 36] (cyclo([Hyp]([CO-Ethylenediamine])[hPhe]W[Ala(piperazin-1-yl)]Y(Bn)[Tic])),63.4%,501 nM,102%,1.26 nM,384.3
NCCNC(=O)O[C@@H]1C[C@H]2C(=O)N[C@@H](CCc3ccccc3)C(=O)N[C@H](Cc3c[nH]c4ccccc34)C(=O)N[C@@H](CN3CCNCC3)C(=O)N[C@@H](Cc3ccc(OCc4ccccc4)cc3)C(=O)N3CCC[C@H]3C(=O)N2C1 [Example 37] (cyclo([Hyp]([CO-Ethylenediamine])[hPhe][dW][Ala(piperazin-1-yl)]Y(Bn)P)),75.8%,6310 nM,108%,2 nM,2927.5
